One may read the IC50 as the midpoint of a concentration-inhibition curve.

recombinant human mGluR2, sequence (Q14416 19-872): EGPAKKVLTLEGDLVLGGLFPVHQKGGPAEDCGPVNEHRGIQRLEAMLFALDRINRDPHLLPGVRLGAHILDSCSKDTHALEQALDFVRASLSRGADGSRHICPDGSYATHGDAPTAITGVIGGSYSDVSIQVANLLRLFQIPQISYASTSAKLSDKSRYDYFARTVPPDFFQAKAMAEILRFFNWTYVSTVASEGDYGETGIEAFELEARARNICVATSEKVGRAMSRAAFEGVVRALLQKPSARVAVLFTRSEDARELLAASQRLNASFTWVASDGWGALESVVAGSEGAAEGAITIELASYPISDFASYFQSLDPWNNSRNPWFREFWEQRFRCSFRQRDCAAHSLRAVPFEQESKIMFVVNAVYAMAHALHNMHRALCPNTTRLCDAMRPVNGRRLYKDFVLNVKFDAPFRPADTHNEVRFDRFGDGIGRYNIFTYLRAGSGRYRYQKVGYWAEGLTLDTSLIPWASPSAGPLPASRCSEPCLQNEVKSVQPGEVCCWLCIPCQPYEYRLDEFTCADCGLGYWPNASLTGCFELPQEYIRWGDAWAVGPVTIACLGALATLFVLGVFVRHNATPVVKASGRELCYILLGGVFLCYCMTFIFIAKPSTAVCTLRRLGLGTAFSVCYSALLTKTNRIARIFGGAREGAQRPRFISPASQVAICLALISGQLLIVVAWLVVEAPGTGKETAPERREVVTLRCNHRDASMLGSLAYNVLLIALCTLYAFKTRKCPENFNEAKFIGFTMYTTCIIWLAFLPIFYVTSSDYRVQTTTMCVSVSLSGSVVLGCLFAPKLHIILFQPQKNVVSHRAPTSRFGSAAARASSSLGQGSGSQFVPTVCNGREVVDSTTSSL

The test has as its target recombinant human mGluR2 (Homo sapiens (Human), UniProt Q14416). Briefly: FLIPR Ca2+ mobilization antagonist assay in CHO dhfr- cells expressing human mGluR2 and Gα16. Type of test: cell-based. Conditions: antagonist response after addition of 2,500 nM glutamate, Fluo-4 AM, FLIPR384. The method in brief: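 CHO dhfr- cells stably co-expressing human mGluR2 and Gα16, Fluo-4 AM loaded, preincubated with compound, then challenged with 2,500 nM glutamate; Ca2+ response read by FLIPR. Maximum calcium response vs concentration fitted to four-parameter logistic for IC50.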
Consider `CC1(C)CC(CN2CCc3c(-c4ccc(F)cc4F)cc(C(N)=O)nc3C2(C)C)CCO1` (racemic) [Example 1-23B, (R) and (S)-4-(2,4-difluorophenyl)-7-((2,2-dimethyltetrahydro-2H-pyran-4-yl)methyl)-8,8-dimethyl-5,6,7,8-tetrahydro-1,7-naphthyridine-2-carboxamide], for which the IC50 was determined as 28.5 nM.

In the case of `COc1ccnc(CN2CCc3c(-c4ccc(Cl)cc4F)cc(C(N)=O)nc3C2)n1` [Example 9-7, 4-(4-chloro-2-fluorophenyl)-7-[(4-methoxypyrimidin-2-yl)methyl]-5,6,7,8-tetrahydro-1,7-naphthyridine-2-carboxamide], the IC50 was found to be 11.7 nM.

On to `NC(=O)c1cc(N2CCCC(F)C2)c2c(n1)CN(Cc1ccnc(C(F)(F)F)c1)CC2` (single isomer, unassigned) [Example 5-6B, (R) or (S)-4-(3-fluoropiperidin-1-yl)-7-((2-(trifluoromethyl)pyridin-4-yl)methyl)-5,6,7,8-tetrahydro-1,7-naphthyridine-2-carboxamide], for which the IC50 amounted to 17.3 nM.

As for `COc1cc(C(N2CCc3c(C4=CCC(C)CC4)cc(C(N)=O)nc3C2)C(F)(F)F)ccn1` (racemic) [Example 4-3A, 4-((S) and (R)-4-methylcyclohex-1-en-1-yl)-7-((S) and (R)-2,2,2-trifluoro-1-(2-methoxypyridin-4-yl)ethyl)-5,6,7,8-tetrahydro-1,7-naphthyridine-2-carboxamide], the IC50 came to 51.2 nM.

Regarding `CC1(C)CC(O)(CN2CCc3c(-c4ccc(F)cc4F)cc(C(N)=O)nc3C2)CCO1` (single isomer, unassigned) [Example 14-2B], the half-inhibitory concentration (IC50) stood at 27.1 nM.

In the case of `Cn1ncnc1CN1CCc2c(-c3ccc(Cl)cc3F)cc(C(N)=O)nc2C1` [Example 9-4, 4-(4-chloro-2-fluorophenyl)-7-[(1-methyl-1H-1,2,4-triazol-5-yl)methyl]-5,6,7,8-tetrahydro-1,7-naphthyridine-2-carboxamide], the half-maximal inhibitory concentration (IC50) came to 23.9 nM.

Consider `COc1cc(CN2CCc3c(-c4ccc(F)cc4F)cc(C(N)=O)nc3C2)ccn1` [Example 13-1, 4-(2,4-difluorophenyl)-7-((2-methoxypyridin-4-yl)methyl)-5,6,7,8-tetrahydro-1,7-naphthyridine-2-carboxamide], for which the IC50 was 7.8 nM.

`COc1cc(CN2CCc3c(-c4ccc(Cl)cc4F)cc(C(N)=O)nc3C2)ccn1` [Example 13-3, 4-(4-chloro-2-fluorophenyl)-7-[(2-methoxypyridin-4-yl)methyl]-5,6,7,8-tetrahydro-1,7-naphthyridine-2-carboxamide]: the IC50 amounted to 16 nM.

Consider `Cc1conc1CN1CCc2c(-c3ccc(F)cc3F)cc(C(N)=O)nc2C1` [Example 2-26, 4-(2,4-difluorophenyl)-7-[(4-methylisoxazol-3-yl)methyl]-5,6,7,8-tetrahydro-1,7-naphthyridine-2-carboxamide], for which the IC50 turned out to be 13.1 nM.

With `NC(=O)c1cc(-n2cc(C(F)(F)F)cn2)c2c(n1)CN(Cc1ccnc(C(F)(F)F)c1)CC2` [Example 5-10, 4-[4-(trifluoromethyl)-1H-pyrazol-1-yl]-7-{[2-(trifluoromethyl)pyridin-4-yl]methyl}-5,6,7,8-tetrahydro-1,7-naphthyridine-2-carboxamide], the half-maximal inhibitory concentration (IC50) was 32 nM.

In the case of `CC(C)(C)n1nccc1CN1CCc2c(-c3ccncc3)cc(C(N)=O)nc2C1` [Example 1-13, 7-[(1-tert-butyl-1H-pyrazol-5-yl)methyl]-4-pyridin-4-yl-5,6,7,8-tetrahydro-1,7-naphthyridine-2-carboxamide], the IC50 was determined as 84.1 nM.

For `CC1c2nc(C(N)=O)cc(N3CCCCC3)c2CCN1Cc1ccnn1C(C)C` (single isomer, unassigned) [Example 1-19, (S) or (R)-8-methyl-7-{[1-(1-methylethyl)-1H-pyrazol-5-yl]methyl}-4-piperidin-1-yl-5,6,7,8-tetrahydro-1,7-naphthyridine-2-carboxamide], the IC50 is 13.2 nM.

As for `CC1(C)CC(CN2CCc3c(-c4ccc(Cl)cc4F)cc(C(N)=O)nc3C2)CCO1` (single isomer, unassigned) [Example 1-5B, (S) or (R)-4-(4-chloro-2-fluorophenyl)-7-((2,2-dimethyltetrahydro-2H-pyran-4-yl)methyl)-5,6,7,8-tetrahydro-1,7-naphthyridine-2-carboxamide], the IC50 is 7.5 nM.

Take `NC(=O)c1cc(-c2ccc(F)cc2)c2c(n1)CN(Cc1cc(C(F)(F)F)ncn1)CC2` [Example 11-10, 4-(4-fluorophenyl)-7-{[6-(trifluoromethyl)pyrimidin-4-yl]methyl}-5,6,7,8-tetrahydro-1,7-naphthyridine-2-carboxamide]: the half-inhibitory concentration (IC50) was determined as 7.6 nM.

Turning to `NC(=O)c1cc(-c2ccc(F)cc2F)c2c(n1)CN(CC(O)c1ccccc1)CC2` (racemic) [Example 8-1B, (S) and (R)-4-(2,4-difluorophenyl)-7-(2-hydroxy-2-phenylethyl)-5,6,7,8-tetrahydro-1,7-naphthyridine-2-carboxamide], the 50% inhibitory concentration (IC50) is 12.7 nM.

Regarding `CC(c1ccnc(C(F)(F)F)c1)N1CCc2c(-c3cnn(C(F)F)c3)cc(C(N)=O)nc2C1` (single isomer, unassigned) [Example 7-3B, (R) or (S)-4-[1-(difluoromethyl)-1H-pyrazol-4-yl]-7-{(1S)-1-[2-(trifluoromethyl)pyridin-4-yl]ethyl}-5,6,7,8-tetrahydro-1,7-naphthyridine-2-carboxamide], the IC50 turned out to be 21.2 nM.

On to `COc1cc(CN2CCc3c(-c4ccc(F)cc4Cl)cc(C(N)=O)nc3C2)ccn1` [Example 13-4, 4-(2-chloro-4-fluorophenyl)-7-[(2-methoxypyridin-4-yl)methyl]-5,6,7,8-tetrahydro-1,7-naphthyridine-2-carboxamide], for which the half-maximal inhibitory concentration (IC50) was determined as 5.7 nM.

For `CC1(C)CC(CN2CCc3c(-c4ccc(F)cc4F)cc(C(N)=O)nc3C2(C)C)CCO1` (racemic) [Example 1-23A, (R) and (S)-4-(2,4-difluorophenyl)-7-((2,2-dimethyltetrahydro-2H-pyran-4-yl)methyl)-8,8-dimethyl-5,6,7,8-tetrahydro-1,7-naphthyridine-2-carboxamide], the IC50 turned out to be 14.7 nM.

For `NC(=O)c1cc(-c2c(F)cc(F)cc2F)c2c(n1)CN(Cc1cc(C(F)(F)F)ncn1)CC2` [Example 11-11, 7-{[6-(trifluoromethyl)pyrimidin-4-yl]methyl}-4-(2,4,6-trifluorophenyl)-5,6,7,8-tetrahydro-1,7-naphthyridine-2-carboxamide], the IC50 came to 26.1 nM.

For the origin of these results see patent publication US10072003B2, “Tetrahydronaphthyridine derivatives as mGluR2-negative allosteric modulators, compositions, and their use” (Merck Sharp & Dohme Corp., priority 2014, dated 2018).
